Consider one compound from patent US8759303B2, “Compositions and methods for treating myelodysplastic syndrome” (Telik, Inc., priority 2010, dated 2014).

This experiment has as its system patients with IPSS Low to Intermediate-1 Risk Myelodysplastic Syndrome. Conditions: for patients achieving significant RBC transfusion reduction: no prior DMTI, five of 11 patients.

Structures are written as SMILES. Read-outs that look alike come from different tables or passages of the source.

Experimental: Eighty-seven patients were randomized and treated at 23 investigational sites. After initial dose ranging in 14 patients, two dose levels were selected for further study. Subsequently, 37 patients were treated at 3 grams daily for two weeks followed by a one week rest period, and 36 patients were treated at 2 grams daily for three weeks followed by a one week rest period. The data on these 73 patients was pooled for this preliminary analysis.

Consider `CCOC(=O)[C@@H](N)CCC(=O)N[C@@H](CSCc1ccccc1)C(=O)N[C@@H](C(=O)OCC)c1ccccc1` [Telintra, ethyl (2S)-2-amino-5-[[(2R)-3-benzylsulfanyl-1-[[(1R)-2-ethoxy-2-oxo-1-phenylethyl]amino]-1-oxopropan-2-yl]amino]-5-oxopentanoate], for which the “increase in response rate, lenalidomide pre-treated vs not pre-treated patients” value (46% vs 22% response rate) is reported as “over 100%”. Moreover, the cytogenetic complete responses result (all study patients) was “three cytogenetic complete responses”. For the same compound, the “HI-E Response Rate (95% Confidence Interval)” value (efficacy evaluable patients with prior Revlimid (lenalidomide) treatment: Yes, N=13, listed as ezatiostat hydrochloride) was “about 46%”. Besides, the “complete cytogenetic response in del 5q minus patients” value (four patients enrolled with del 5q minus, one responder had failed prior Revlimid) is reported as “two had a complete cytogenetic response”. Moreover, the “change in odds for a HI-E response with prior DMTI treatment” value (logistic regression analysis, p=0.023) is recorded as “five-fold decrease”. In addition, the “patients achieving significant RBC transfusion reduction” value by setting is: (no prior Revlimid) 45%; (prior Revlimid) 45%. The “duration of complete remission following discontinuation of therapy” value (one patient (Quddus et al.)) is “more than 12 months”.
